Measurements taken from US10653680B2, “Treatment of impulsivity-related disorders” (OXFORD UNIVERSITY INNOVATION LIMITED, priority 2016, dated 2020).

Experiments:
rats [1] = conditions: in rats; cited from earlier work
rats [2] = assay: 5-CSRTT, stimulant (cocaine)-induced responding; format: in vivo, rats (males; Long Evans)
Description: (§1) Testing was carried out in Vancouver (Canada) using rats (males; Long Evans from Charles River) which were given at least two weeks to acclimatise to the animal facility. They were housed in pairs on a 12 hour reverse light-dark cycle (lights off at 7 am). In the second week of acclimatisation, rats were handled briefly each day. […] For each task, there was then a habituation session to the operant boxes before training began.
(§2) Ebselen, cocaine and 2,5-dimethoxy-4-iodoamphetamine (DOI) were obtained from Sigma Aldrich, and MDL 100,907 was obtained from Tocris. Ebselen was dissolved in 0.5M DMSO and made up to injection volume (8 ml/kg) using 4% cyclodextrin. Cocaine and DOI were dissolved in 0.9% saline. MDL 100,907 was dissolved in 0.9% saline and the pH was adjusted to 6.25 using 1M NaOH and 0.1M HCl.
(§3) All data for the cognitive tasks are presented as mean+SEM change from baseline: • performance on drug day−performance on the previous day
In experiments investigating the effect of ebselen on cocaine and DOI, data were analysed with a two-way ANOVA with ebselen and cocaine/DOI as between-subject factors. If an interaction was detected, this was further investigated using simple main effects analysis. All analyses were conducted using SPSS 22 with p<0.05 considered significant.
To assess the effect of ebselen on stimulant-induced responding, ebselen (10 mg/kg) or vehicle was administered 1 hour prior to cocaine (15 mg/kg i.p.), which in turn was administered 10 minutes prior to testing. Treatments were administered using according to a Latin square design. The inter-trial interval for these sessions was 5 seconds. Two rats were excluded from the data due to increasing levels of omissions across all days of this portion of the study. The experiment was repeated using 0.03 mg/kg MDL 100,907 instead of ebselen.

healthy participants = assay: Human study: subjective ratings (PANAS mood, side effect profile, LSEQ sleep, guess of treatment arm); format: in vivo
Source text: Twenty healthy participants (7 females, 13 males; mean age 25.1 years, range 20-38 years; mean BMI 22.7 kg/m^2, range 18.7-30.0 kg/m^2) were included in the study after giving full informed written consent.
Exclusion criteria included a history of any DSM-5 Axis I psychiatric disorder (determined using the […] for Diagnostic and Statistical Manual for Mental Health Disorders), significant current medical condition, current regular medication (apart from the contraceptive pill), pregnancy or lactation, heavy smoking (defined as more than 5 cigarettes per day) and having taken part in another study involving an investigational drug within the previous 3 months. Participants were asked to maintain stable exercise and diet as well as refrain from alcohol during study participation.
Ebselen capsules and identical matching placebo (containing microcrystalline cellulose) were purchased from Shasun Pharmaceuticals Ltd. Participants were tested twice (seven days apart) receiving on one occasion ebselen and, on the other, placebo in a randomised, double-blind, cross-over design. Ebselen was administered in 6×200 mg capsules in three doses given over two days. The order of receiving either the ebselen or the placebo was randomised.
On the day before cognitive testing, participants took the first dose at 1 pm and the second dose at 10 pm. The final dose was taken around 3 hrs prior to cognitive testing. Participants were sent text message reminders a few minutes before they were due to take medication, and were asked to confirm receipt of the messages. The cognitive tasks were carried out immediately after a magnetic resonance spectroscopy study.
On the screening visit, participants were assessed for baseline depression and anxiety symptoms with the Beck Depression Inventory (Beck et al.; Arch. Gen. Psychiatry; 1961, 4: 561-571) and the state measure of the State-Trait Anxiety Inventory (STAI) (Spielberger et al.; Manual for the State-Trait Anxiety Inventory, Consulting Psychologists Press, Palo Alto Calif., 1983), and for personality with the Eysenck Personality Questionnaire (Eysenck and Eysenck, Manual of the Eysenck Personality Questionnaire, London: Hodder & Stoughton, 1975). On the morning preceding psychological testing, the Leeds Sleep Evaluation Questionnaire (LSEQ) was completed within 30 minutes of waking (Parrot and Hindmarch, Psychopharmacology, 1980, 71, 173-179).
Before cognitive testing, participants were asked to rate their mood using the Positive and Negative Affective Schedule (PANAS) (Watson et al.; J. Pers. Soc. Psychol., 1988, 54, 1063-1070), to complete a side effect profile using a 4-point rating scale and also to guess as to whether they had received ebselen or placebo on that randomization arm. […]

humans = conditions: at pharmaceutically effective dosages; clinical trials for ischemic stroke (Yamaguchi et al); cited from earlier work
[3] = WO 2012/107735; cited from earlier work
rats [4] = assay: Rodent Gambling Task (rGT); format: in vivo, rats (males; Long Evans)
Description: as §1, §2, §3
The data were analysed with repeated measures ANOVA with dose as a within-subject factor. Where appropriate, post-hoc analysis was performed using Student's paired t-test.
The Latin square design (for both the 5-CSRTT and rGT experiments) was counterbalanced, based on performance in the last training day of each task. A one week wash-out period was given between drug-administration days. A baseline session was performed both the day before and the day after treatment to ensure stable off-drug performance.
This was performed as described previously (Zeeb et al; Neuropsychopharmacology, 2009, 34(10), 2329-2343), and is illustrated schematically in FIG. 2. Twenty one rats were trained to respond in standard 5-CSRTT boxes. Once reliable responding was established, different reward contingencies were associated with four nose-poke apertures (the central aperture was not used in this task). In each case, the reward size and probability of outcome differed between the choices. When no reward was delivered, a fixed-length time-out was delivered. The length of this time-out was varied between choices, with the longest time-out being associated with the largest, least likely reward. […] On the other 20% of occasions, a 10 second time-out was initiated. Once stable performance was achieved, rats were administered ebselen (2, 5 and 10 mg/kg i.p.) or vehicle in a Latin square design.

O=c1c2ccccc2[se]n1-c1ccccc1 [Ebselen, 2-phenyl-1,2-benzisoselenazol-3(2H)-one]
LD50 concentration (rats [1]): greater than 1000 mg/kg | any other measure (rats [2]; ebselen 10 mg/kg / cocaine 15 mg/kg experiment): No effects | reversal of the cocaine effect on omissions (rats [2]; ebselen 10 mg/kg before cocaine 15 mg/kg, p=0.463): not reversed | reversal of the cocaine effect on accuracy (rats [2]; ebselen 10 mg/kg before cocaine 15 mg/kg, p=0.969, interaction p=0.278): not reversed | cocaine-induced premature responses (rats [2]; ebselen 10 mg/kg i.p. 1 hour prior to cocaine 15 mg/kg i.p., p=0.023): reduced cocaine-induced premature responses | number of premature responses, ebselen/cocaine vs vehicle/vehicle treatment (rats [2]; ebselen 10 mg/kg, cocaine 15 mg/kg i.p., p=0.909): did not differ | tolerability (healthy participants; 20 healthy participants, 6x200 mg in three doses over two days, no participants dropped out): well tolerated | frequency of other side effects (healthy participants; ebselen and placebo treatment compared): low and comparable frequency of side effects | subjective measures of sleep (LSEQ) (healthy participants; ebselen vs placebo): no significant differences | participants who reported feeling drowsy (healthy participants; of 20 participants on ebselen treatment, none on placebo): Five | toxicity in humans (humans): sufficiently non-toxic | transfer across the blood/brain barrier [3]: capable of transferring across the blood/brain barrier | premature responses (rats [4]; ebselen 2 mg/kg i.p. vs vehicle, p=0.052): decreased premature responses | response latency (increase in time to respond) (rats [4]; ebselen 2 mg/kg, paired t-test, p=0.056): trend | reward latency (time taken to collect rewards) (rats [4]; ebselen 2 mg/kg, p=0.024): significant increase | premature responses (rats [4]; ebselen 5 mg/kg i.p. vs vehicle, p=0.077): decreased trend | response latency (increase in time to respond) (rats [4]; ebselen 5 mg/kg, paired t-test, p=0.028): significant | reward latency (rats [4]; ebselen 5 mg/kg, p=0.069): trend increase | premature responses (rats [4]; ebselen 10 mg/kg i.p. vs vehicle, p=0.028): decreased premature responses | response latency (rats [4]; ebselen 10 mg/kg, paired t-test, p=0.246): no significant effect | reward latency (time taken to collect rewards) (rats [4]; ebselen 10 mg/kg, p=0.005): significant increase | reward latency (rats [4]; ebselen 2, 5, 10 mg/kg i.p., overall ANOVA, p=0.062): no effect | response latency (rats [4]; ebselen 2, 5, 10 mg/kg i.p., overall ANOVA, p=0.090): no effect | number of trials completed during the sessions (rats [4]; ebselen 2, 5, 10 mg/kg i.p., p=0.546): no effect | choice behaviour (rats [4]; ebselen 2, 5, 10 mg/kg i.p., p=0.596): no effect | premature responses (rats [4]; ebselen 2, 5 and 10 mg/kg i.p. overall, p=0.088): overall trend to decreased premature responses
